# Reference: patent publication US8178658B2 (Dow AgroSciences, LLC, priority 2008, dated 2012)
# Experiments:
# [1] = tested on: beet armyworm (BAW; Spodoptera exigua: Lepidoptera); test: 96-well microtiter plate-based high throughput (HTS) diet bioassay on beet armyworm (BAW HTS); assay type: in vivo; conditions: BAW eggs, 12 μg test compound per well, mortality at 6 d post-treatment, mortality class
# Summary of the method: (§1)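 Two diet-incorporation-style surface tests were run. Eggs infested treated diet (12 μg/well) in plates incubated dark at 29° C, with mortality taken on day 6 from six replicates. Separately, second-instar larvae fed on treated diet (50 μg/cm^2) at 25° C, 14:10 L:D, with six-day mortality averaged over eight wells.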
# [2] = tested on: beet armyworm (BAW; Spodoptera exigua: Lepidoptera); test: 128-well diet tray assay on beet armyworm (BAW 50); assay type: in vivo; conditions: 128-well diet tray assay, 50 μg/cm^2 of test compound on diet, second instar BAW larvae, mortality class
# Summary of the method: as §1
# [3] = 96-well microtiter plate HTS diet assay
SMILES,BAW HTS ([1]; 96-well HTS diet bioassay),"BAW HTS [1, 3]",BAW 50 ug/cm2 [2],BAW HTS ([1]; 96-well HTS diet assay),"pest or weed control at 12 µg/well, 12 µg/well ([1]; Spodoptera exigua, 144 h, 96-well HTS diet assay, read-out: BAW HTS) [%]","pest or weed control at 50 µg/cm2, 50 µg/cm2 ([2]; Spodoptera exigua, 144 h, read-out: BAW 50 ug/cm2) [%]"
CCOC1C(OC)C(C)OC(ON=Cc2ccc(-c3ncn(-c4ccc(C(F)(F)F)nc4)n3)cc2)C1OC (stereo not shown) [Compound 121],B (either (1) the compound was tested and less than 50 percent mortality was observed or (2) the compound was not tested),B (either (1) the compound was tested and less than 50 percent mortality was observed or (2) the compound was not tested),A (the compound was tested and at least 50 percent mortality was observed),–,–,–
CCOC1C(OC)C(C)OC(ON=Cc2ccc(-c3ncn(-c4ccc(OC(F)(F)F)cc4)n3)cn2)C1OC (stereo not shown) [Compound 123],B (either (1) the compound was tested and less than 50 percent mortality was observed or (2) the compound was not tested),B (either (1) the compound was tested and less than 50 percent mortality was observed or (2) the compound was not tested),A (the compound was tested and at least 50 percent mortality was observed),–,–,–
CCOC1C(OC)C(C)OC(ON=Cc2ccc(-c3ncn(-c4ccc(OC(F)(F)C(F)(F)Br)cc4)n3)cc2)C1OC (stereo not shown) [Compound 124],B (either (1) the compound was tested and less than 50 percent mortality was observed or (2) the compound was not tested),B (either (1) the compound was tested and less than 50 percent mortality was observed or (2) the compound was not tested),A (the compound was tested and at least 50 percent mortality was observed),–,–,–
CCOc1ccc(-n2cnc(-c3ccc(C=NOC4OC(C)C(OC)C(OCC)C4OC)cc3)n2)cc1 (stereo not shown) [Compound 125],B (either (1) the compound was tested and less than 50 percent mortality was observed or (2) the compound was not tested),B (either (1) the compound was tested and less than 50 percent mortality was observed or (2) the compound was not tested),A (the compound was tested and at least 50 percent mortality was observed),–,–,–
CCOC1C(OC)C(C)OC(ON=Cc2ccc(-c3ncn(-c4ccc(C#N)cc4)n3)cc2)C1OC (stereo not shown) [Compound 126],B (either (1) the compound was tested and less than 50 percent mortality was observed or (2) the compound was not tested),B (either (1) the compound was tested and less than 50 percent mortality was observed or (2) the compound was not tested),A (the compound was tested and at least 50 percent mortality was observed),–,–,–
CCOC1C(OC)C(C)OC(ON=Cc2ccc(-c3ncn(-c4ccc([N+](=O)[O-])cc4)n3)cc2)C1OC (stereo not shown) [Compound 127],B (either (1) the compound was tested and less than 50 percent mortality was observed or (2) the compound was not tested),B (either (1) the compound was tested and less than 50 percent mortality was observed or (2) the compound was not tested),A (the compound was tested and at least 50 percent mortality was observed),–,–,–
CCOC1C(OC)C(C)OC(ON=Cc2ccc(-c3nc(-c4ccc(OC(F)(F)F)cc4)ns3)cc2)C1OC (stereo not shown) [Compound 128],B (either (1) the compound was tested and less than 50 percent mortality was observed or (2) the compound was not tested),B (either (1) the compound was tested and less than 50 percent mortality was observed or (2) the compound was not tested),A (the compound was tested and at least 50 percent mortality was observed),–,–,–
CCOC1C(OC)C(C)OC(ON=Cc2ccc(-c3nsc(-c4ccc(OC(F)(F)F)cc4)n3)cc2)C1OC (stereo not shown) [Compound 129],B (either (1) the compound was tested and less than 50 percent mortality was observed or (2) the compound was not tested),B (either (1) the compound was tested and less than 50 percent mortality was observed or (2) the compound was not tested),A (the compound was tested and at least 50 percent mortality was observed),–,–,–
COC1C(C)OC(ON=Cc2ccc(-n3nnc(-c4ccc(C(F)(F)F)cc4)n3)cc2)C(OC)C1OC (stereo not shown) [Compound 131],–,B (either (1) the compound was tested and less than 50 percent mortality was observed or (2) the compound was not tested),B (either (1) the compound was tested and less than 50 percent mortality was observed or (2) the compound was not tested),B (either (1) the compound was tested and less than 50 percent mortality was observed or (2) the compound was not tested),–,–
CO[C@@H]1[C@@H](OC)[C@H](C)O[C@@H](O/N=C/c2ccc(-c3ccnc(-c4ccc(OC(F)(F)F)cc4)c3)cc2)[C@@H]1OC [Compound 132],–,B (either (1) the compound was tested and less than 50 percent mortality was observed or (2) the compound was not tested),A (the compound was tested and at least 50 percent mortality was observed),–,< 50,> 50
COC1C(C)OC(ON=Cc2ccc(-c3cc(-c4ccc(OC(F)(F)F)cc4)ccn3)cc2)C(OC)C1OC (stereo not shown) [Compound 133],–,B (either (1) the compound was tested and less than 50 percent mortality was observed or (2) the compound was not tested),A (the compound was tested and at least 50 percent mortality was observed),B (either (1) the compound was tested and less than 50 percent mortality was observed or (2) the compound was not tested),–,–
COC1C(C)OC(ON=Cc2ccc(-c3cccc(-c4ccc(OC(F)(F)F)cc4)n3)cc2)C(OC)C1OC (stereo not shown) [Compound 134],–,B (either (1) the compound was tested and less than 50 percent mortality was observed or (2) the compound was not tested),A (the compound was tested and at least 50 percent mortality was observed),B (either (1) the compound was tested and less than 50 percent mortality was observed or (2) the compound was not tested),–,–
COC1C(C)OC(ON=Cc2ccc(-c3cncc(-c4ccc(OC(F)(F)F)cc4)c3)cc2)C(OC)C1OC (stereo not shown) [Compound 135],–,B (either (1) the compound was tested and less than 50 percent mortality was observed or (2) the compound was not tested),A (the compound was tested and at least 50 percent mortality was observed),B (either (1) the compound was tested and less than 50 percent mortality was observed or (2) the compound was not tested),–,–
COC1C(C)OC(ON=Cc2ccc(-c3ncc(-c4ccc(OC(F)(F)F)cc4)cn3)cc2)C(OC)C1OC (stereo not shown) [Compound 136],–,B (either (1) the compound was tested and less than 50 percent mortality was observed or (2) the compound was not tested),A (the compound was tested and at least 50 percent mortality was observed),B (either (1) the compound was tested and less than 50 percent mortality was observed or (2) the compound was not tested),–,–
COC1C(C)OC(ON=Cc2ccc(-c3cnc(-c4ccc(OC(F)(F)F)cc4)nc3)cc2)C(OC)C1OC (stereo not shown) [Compound 137],–,B (either (1) the compound was tested and less than 50 percent mortality was observed or (2) the compound was not tested),A (the compound was tested and at least 50 percent mortality was observed),B (either (1) the compound was tested and less than 50 percent mortality was observed or (2) the compound was not tested),–,–
COC1C(C)OC(ON=Cc2ccc(-c3nccc(-c4ccc(OC(F)(F)F)cc4)n3)cc2)C(OC)C1OC (stereo not shown) [Compound 138],–,A (the compound was tested and at least 50 percent mortality was observed),A (the compound was tested and at least 50 percent mortality was observed),A (the compound was tested and at least 50 percent mortality was observed),–,–
COC1C(C)OC(ON=Cc2ccc(-c3ccnc(-c4ccc(OC(F)(F)F)cc4)n3)cc2)C(OC)C1OC (stereo not shown) [Compound 139],–,A (the compound was tested and at least 50 percent mortality was observed),A (the compound was tested and at least 50 percent mortality was observed),A (the compound was tested and at least 50 percent mortality was observed),–,–
COC1C(C)OC(ON=Cc2ccc(-c3cc(-c4ccc(OC(F)(F)F)cc4)ncn3)cc2)C(OC)C1OC (stereo not shown) [Compound 140],–,B (either (1) the compound was tested and less than 50 percent mortality was observed or (2) the compound was not tested),A (the compound was tested and at least 50 percent mortality was observed),B (either (1) the compound was tested and less than 50 percent mortality was observed or (2) the compound was not tested),–,–
CO[C@@H]1[C@@H](OC)[C@H](C)O[C@@H](O/N=C/c2ccc(-c3ncc(-c4ccc(OC(F)(F)C(F)(F)F)cc4)cn3)cc2)[C@@H]1OC [Compound 141],–,A (the compound was tested and at least 50 percent mortality was observed),A (the compound was tested and at least 50 percent mortality was observed),A (the compound was tested and at least 50 percent mortality was observed),–,–
CCOC1C(OC)C(C)OC(ON=Cc2ccc(-c3ncc(-c4ccc(OC(F)(F)C(F)(F)F)cc4)cn3)cc2)C1OC (stereo not shown) [Compound 142],–,A (the compound was tested and at least 50 percent mortality was observed),A (the compound was tested and at least 50 percent mortality was observed),A (the compound was tested and at least 50 percent mortality was observed),–,–
